Measured values from ChEMBL document CHEMBL1124428, “In vitro metabolic transformations of vinblastine: oxidations catalyzed by peroxidase” (J Med Chem, 1989).
Converted amounts (≈) assume the structure as drawn.

assay: Inhibitory concentration against human T-cell leukemic cell line ([…]) in vitro; format: functional

First: CC[C@]12CN3CCc4c([nH]c5ccccc45)[C@@](C(=O)OC)(c4cc5c(cc4OC)N(C)[C@H]4[C@@](O)(C(=O)OC)[C@H](OC(C)=O)[C@]6(CC)C=CCN7CC[C@]54[C@@H]76)C[C@@H](C3)[C@H]1O2.CC[C@]12CN3CCc4c([nH]c5ccccc45)[C@@](C(=O)OC)(c4cc5c(cc4OC)N(C)[C@H]4[C@@](O)(C(=O)OC)[C@H](OC(C)=O)[C@]6(CC)C=CCN7CC[C@]54[C@@H]76)C[C@@H](C3)[C@H]1O2.O=S(=O)(O)O [VINLEUROSINE SULFATE]
Second: CC[C@]1(O)C[C@@H]2CN(CCc3c([nH]c4ccccc34)[C@@](C(=O)OC)(c3cc4c(cc3OC)N(C)[C@H]3[C@@](O)(C(=O)OC)[C@H](OC(C)=O)[C@]5(CC)C=CCN6CC[C@]43[C@@H]65)C2)C1 [VINBLASTINE]
The IC50 of the first is 4-fold higher: 0.4 µg/mL for the first, 0.1 µg/mL (≈ 0.123 µM) for the second.

Going from `CC[C@]1(O)C[C@H]2CN(CCc3c([nH]c4ccccc34)[C@@](C(=O)OC)(c3cc4c(cc3OC)N(C=O)[C@H]3[C@@](O)(C(=O)OC)[C@H](OC(C)=O)[C@]5(CC)C=CCN6CC[C@]43[C@@H]65)C2)C1` [VINCRISTINE] to `CCC(=O)C[C@@H]1CN(C=O)CCc2c([nH]c3ccccc23)[C@@](C(=O)OC)(c2cc3c(cc2OC)N(C)[C@H]2[C@](O)(C(=O)OC)[C@H](OC(C)=O)[C@]4(CC)C=CCN5CC[C@]32[C@@H]54)C1` [CATHARININE], the IC50 rises from 0.025 µg/mL (≈ 0.0303 µM) to 7.7 µg/mL (≈ 9.33 µM) (310-fold).
